Assay [1] concerns the target T1, peroxisome proliferator-activated receptor γ (PPARγ) (Homo sapiens, UniProt P37231).
T1 construct: gene PPARG; recombinant PPARγ LBD
The experiment in a line: in vitro CDK5/P35 kinase assay on PPARγ LBD (ADP-Glo, phospho-Ser-273 Western blot); histone H1 phosphorylation not inhibited; weak PPRE luciferase activation. In kind it is biochemical.

Assay [2] addresses T1, peroxisome proliferator-activated receptor γ (PPARγ). Nature of the assay: in vitro CDK5/P35 kinase assay on PPARγ LBD (ADP-Glo, phospho-Ser-273 Western blot); histone H1 phosphorylation not inhibited; PPRE luciferase in HEK293T. In kind it is biochemical. (In general: In ADP-Glo the light output rises with the ADP produced.)

The text below walks through data of article PMC11112612, “Sulfonylureas exert antidiabetic action on adipocytes by inhibition of PPARγ serine 273 phosphorylation” (Molecular Metabolism, 2024).

By IC50 is commonly meant the midpoint of a concentration-inhibition curve. High values mean a need for much substance, low ones inhibition by little substance.

T1 sequence (P37231 231-505 limits assumed): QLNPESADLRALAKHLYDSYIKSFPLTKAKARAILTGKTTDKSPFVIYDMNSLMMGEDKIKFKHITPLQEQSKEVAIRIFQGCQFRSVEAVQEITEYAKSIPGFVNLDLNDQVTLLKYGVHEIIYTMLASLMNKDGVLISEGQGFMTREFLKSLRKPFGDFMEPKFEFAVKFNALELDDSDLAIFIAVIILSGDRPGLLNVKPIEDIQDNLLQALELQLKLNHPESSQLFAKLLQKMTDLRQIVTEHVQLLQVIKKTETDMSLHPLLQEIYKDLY
T1 sequence (Q00535 whole entry partner, the tested form may be a part): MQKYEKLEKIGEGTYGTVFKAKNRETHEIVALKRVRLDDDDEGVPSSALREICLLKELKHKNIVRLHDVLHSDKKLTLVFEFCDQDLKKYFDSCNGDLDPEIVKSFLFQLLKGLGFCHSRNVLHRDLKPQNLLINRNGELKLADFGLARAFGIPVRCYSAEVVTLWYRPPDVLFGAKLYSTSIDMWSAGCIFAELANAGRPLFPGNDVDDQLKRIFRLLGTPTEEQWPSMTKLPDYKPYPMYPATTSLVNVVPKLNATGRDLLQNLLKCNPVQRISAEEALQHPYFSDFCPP
T1 sequence (Q15078 2-307 partner): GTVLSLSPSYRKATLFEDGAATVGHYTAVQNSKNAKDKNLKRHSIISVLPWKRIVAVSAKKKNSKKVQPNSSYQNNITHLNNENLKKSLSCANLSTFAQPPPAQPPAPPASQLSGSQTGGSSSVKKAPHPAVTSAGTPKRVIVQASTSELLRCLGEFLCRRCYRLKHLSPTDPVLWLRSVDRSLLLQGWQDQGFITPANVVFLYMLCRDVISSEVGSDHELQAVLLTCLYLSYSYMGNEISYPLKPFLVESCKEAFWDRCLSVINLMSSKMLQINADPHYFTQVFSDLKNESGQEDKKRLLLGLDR

On to `CCC1=C(C)CN(C(=O)NCCc2ccc(S(=O)(=O)NC(=O)N[C@H]3CC[C@H](C)CC3)cc2)C1=O` [glimepiride], for which the concentration for half-maximal inhibition (IC50) in assay [1] amounted to 378 nM.
On to `COc1ccc(Cl)cc1C(=O)NCCc1ccc(S(=O)(=O)NC(=O)NC2CCCCC2)cc1` [glibenclamide], for which the half-maximal inhibitory concentration (IC50) in assay [2] stood at 25 nM.
